Results on 2 compounds are retold here after paper PMC3671792 (Biochemical Journal, 2013).

One experiment deals with T1, ZmCK2α (Zea mays, UniProt P28523).
T1 construct: gene ACK2
The following applies: 25 uM ATP, 10 mM MgCl2, pH 7.5, 30 °C; labelled compound; GST-Rh2b phosphorylated, GST-AMA1 not.

Another experiment addresses T2, MmPKAc (Mus musculus, UniProt P05132).
T2 construct: gene Prkaca
The following applies: 25 uM ATP, 10 mM MgCl2, pH 7.5, 30 °C; labelled compound; GST-AMA1 phosphorylated, GST-Rh2b not.

Experiment [1] concerns the target T3, PfCK2 α (CK2–HA, immunoprecipitated) (Plasmodium falciparum, UniProt Q8IIR9).
T3 construct: gene PF3D7_1108400; full coding region with C-terminal 3xHA tag, overexpressed episomally (crt promoter) in 3D7 parasites, immunoprecipitated on anti-HA/Protein G beads, ~42 kDa band; endogenous beta1/beta2 subunits could co-precipitate
Put plainly: phosphorylation of GST-Rh2b CPD by immunoprecipitated CK2-HA, phospho-specific Western blot. It counts as biochemical. The following applies: 25 uM ATP, 10 mM MgCl2, pH 7.5, 30 °C; protein substrate GST-Rh2b CPD; kinase on beads. Background: Immunoblotting shows a protein as a band on a membrane.

Structures are written as SMILES.

T1 sequence (P28523 whole entry): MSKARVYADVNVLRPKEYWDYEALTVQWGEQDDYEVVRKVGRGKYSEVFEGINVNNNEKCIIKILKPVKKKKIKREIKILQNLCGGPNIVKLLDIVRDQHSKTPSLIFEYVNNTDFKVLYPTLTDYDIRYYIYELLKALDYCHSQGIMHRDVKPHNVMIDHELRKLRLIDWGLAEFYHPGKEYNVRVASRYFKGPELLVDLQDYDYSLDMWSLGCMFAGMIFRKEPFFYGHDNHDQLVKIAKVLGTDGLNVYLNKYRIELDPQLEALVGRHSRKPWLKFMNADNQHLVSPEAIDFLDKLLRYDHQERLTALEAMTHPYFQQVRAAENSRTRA
T3 sequence (Q8IIR9 entry or part of it): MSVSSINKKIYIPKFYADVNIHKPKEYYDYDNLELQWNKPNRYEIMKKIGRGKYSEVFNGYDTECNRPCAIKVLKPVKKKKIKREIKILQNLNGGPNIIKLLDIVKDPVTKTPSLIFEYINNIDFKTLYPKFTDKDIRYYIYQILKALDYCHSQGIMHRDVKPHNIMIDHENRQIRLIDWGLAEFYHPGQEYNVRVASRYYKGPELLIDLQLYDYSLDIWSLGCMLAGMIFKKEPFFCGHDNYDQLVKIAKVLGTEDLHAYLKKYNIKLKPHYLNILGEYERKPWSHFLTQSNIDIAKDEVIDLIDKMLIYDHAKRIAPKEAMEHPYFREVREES

For the compound `Nc1ncnc2c1ncn2[C@@H]1O[C@H](COP(=O)(O)OP(=O)(O)OP(=O)(O)O)[C@@H](O)[C@H]1O` [ATP], at ZmCK2α, the “in vitro kinase assay with GST-Rh2b CPD, [γ-32P]ATP” value is recorded as “the enzyme was able to phosphorylate GST–Rh2b”. The “in vitro kinase assay with GST-AMA1 CPD, [γ-32P]ATP” value on MmPKAc is “Although MmPKAc phosphorylated AMA1–GST, it showed no reactivity against GST–Rh2b”.

Consider `O=C(O)/C=C/c1cc(Br)c(Br)c(Br)c1Br` [TBCA], for which the “inhibition (qualitative)” value in experiment [1] is “sensitive to heparin treatment (Figure 4E) and to increasing amounts of TBCA (Figure 4F)”.
